Common to all, as to test: biochemical
The target of assay [1] is T1, panel of 374 wild-type kinases (Homo sapiens, UniProt Q04912).
T1 construct: purchased Reaction Biology Corporation
The note with it: read-out: % Enzyme Activity (relative to DMSO controls), kinase RON/MST1R.

Assay [2] concerns the target T2, panel of 374 wild-type kinases (Homo sapiens, UniProt O75914).
T2 construct: purchased Reaction Biology Corporation
The note with it: read-out: % Enzyme Activity (relative to DMSO controls), kinase PAK3.

For assay [3], the target named is T3, panel of 374 wild-type kinases (Homo sapiens, UniProt P51957).
T3 construct: purchased Reaction Biology Corporation
T3 sequence (P51957 whole entry): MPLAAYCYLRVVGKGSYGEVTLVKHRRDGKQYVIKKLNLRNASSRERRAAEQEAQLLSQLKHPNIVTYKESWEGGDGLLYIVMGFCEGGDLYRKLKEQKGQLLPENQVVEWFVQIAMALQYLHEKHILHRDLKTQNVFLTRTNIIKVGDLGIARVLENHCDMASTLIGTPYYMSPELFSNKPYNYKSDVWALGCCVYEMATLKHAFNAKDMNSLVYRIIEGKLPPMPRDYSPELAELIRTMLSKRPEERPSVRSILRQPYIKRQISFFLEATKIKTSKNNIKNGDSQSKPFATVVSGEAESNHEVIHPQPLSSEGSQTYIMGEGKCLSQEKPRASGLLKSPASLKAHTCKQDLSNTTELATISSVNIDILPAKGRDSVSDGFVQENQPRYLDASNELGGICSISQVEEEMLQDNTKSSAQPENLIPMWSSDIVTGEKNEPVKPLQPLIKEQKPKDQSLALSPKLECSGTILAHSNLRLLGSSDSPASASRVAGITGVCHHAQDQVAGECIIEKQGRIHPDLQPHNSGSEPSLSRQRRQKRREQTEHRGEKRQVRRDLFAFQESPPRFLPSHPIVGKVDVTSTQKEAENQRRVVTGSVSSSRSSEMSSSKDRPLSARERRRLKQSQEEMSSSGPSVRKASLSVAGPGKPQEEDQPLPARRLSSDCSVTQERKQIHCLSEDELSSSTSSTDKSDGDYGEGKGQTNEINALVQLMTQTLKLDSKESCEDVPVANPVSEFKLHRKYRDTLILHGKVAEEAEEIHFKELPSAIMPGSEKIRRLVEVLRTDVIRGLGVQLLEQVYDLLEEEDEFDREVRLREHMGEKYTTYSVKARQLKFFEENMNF
The note with it: read-out: % Enzyme Activity (relative to DMSO controls), NEK4.

Assay [4] concerns the target T4, panel of 374 wild-type kinases (Homo sapiens, UniProt Q9UBS0).
T4 construct: purchased Reaction Biology Corporation
The note with it: read-out: % Enzyme Activity (relative to DMSO controls), kinase p70S6Kb/RPS6KB2.

Assay [5] concerns the target T5, panel of 374 wild-type kinases (Homo sapiens, UniProt Q13177).
T5 construct: purchased Reaction Biology Corporation
The note with it: read-out: % Enzyme Activity (relative to DMSO controls), kinase PAK2.

The target in assay [6] is T6, panel of 374 wild-type kinases (Homo sapiens, UniProt O94921).
T6 construct: purchased Reaction Biology Corporation
The note with it: read-out: % Enzyme Activity (relative to DMSO controls), CDK14/cyclin Y (PFTK1).

In assay [7] the target is T7, panel of 374 wild-type kinases (Homo sapiens, UniProt P42681).
T7 construct: purchased Reaction Biology Corporation
T7 sequence (P42681 1-527): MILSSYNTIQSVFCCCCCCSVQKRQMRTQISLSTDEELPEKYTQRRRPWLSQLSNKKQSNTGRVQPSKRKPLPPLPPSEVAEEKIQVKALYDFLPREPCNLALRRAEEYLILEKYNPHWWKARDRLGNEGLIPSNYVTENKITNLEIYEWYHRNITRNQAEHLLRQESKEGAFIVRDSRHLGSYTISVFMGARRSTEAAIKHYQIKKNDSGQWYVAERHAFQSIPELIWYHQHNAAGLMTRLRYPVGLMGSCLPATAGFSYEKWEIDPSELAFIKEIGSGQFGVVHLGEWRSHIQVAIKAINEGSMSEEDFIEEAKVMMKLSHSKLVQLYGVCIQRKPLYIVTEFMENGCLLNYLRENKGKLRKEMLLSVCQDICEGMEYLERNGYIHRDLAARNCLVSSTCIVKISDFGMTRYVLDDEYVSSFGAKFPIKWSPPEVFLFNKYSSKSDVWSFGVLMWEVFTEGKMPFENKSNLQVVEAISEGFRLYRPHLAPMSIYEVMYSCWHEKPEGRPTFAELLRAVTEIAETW
The note with it: read-out: % Enzyme Activity (relative to DMSO controls), kinase TXK.

The target in assay [8] is T8, panel of 374 wild-type kinases (Homo sapiens, UniProt Q9H1R3).
T8 construct: purchased Reaction Biology Corporation
T8 sequence (Q9H1R3 whole entry): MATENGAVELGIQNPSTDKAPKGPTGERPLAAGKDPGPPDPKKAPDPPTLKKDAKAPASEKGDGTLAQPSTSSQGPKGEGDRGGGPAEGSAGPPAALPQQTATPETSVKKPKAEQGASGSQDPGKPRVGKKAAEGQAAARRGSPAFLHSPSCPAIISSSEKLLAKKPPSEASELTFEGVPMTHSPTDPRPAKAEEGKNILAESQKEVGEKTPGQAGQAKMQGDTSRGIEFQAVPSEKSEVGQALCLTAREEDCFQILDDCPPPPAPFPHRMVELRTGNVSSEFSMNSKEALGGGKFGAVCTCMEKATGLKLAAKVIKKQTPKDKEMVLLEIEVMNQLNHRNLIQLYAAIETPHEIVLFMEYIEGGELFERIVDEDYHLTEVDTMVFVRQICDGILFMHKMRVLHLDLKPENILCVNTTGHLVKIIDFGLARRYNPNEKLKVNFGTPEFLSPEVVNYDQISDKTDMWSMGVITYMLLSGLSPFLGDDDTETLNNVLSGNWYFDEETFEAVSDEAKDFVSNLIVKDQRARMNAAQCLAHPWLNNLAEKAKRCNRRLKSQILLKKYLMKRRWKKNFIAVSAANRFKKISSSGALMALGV
The note with it: read-out: % Enzyme Activity (relative to DMSO controls), MLCK2/MYLK2.

Assay [9] has as its target T9, panel of 374 wild-type kinases (Homo sapiens, UniProt Q13470).
T9 construct: purchased Reaction Biology Corporation
T9 sequence (Q13470 1-666): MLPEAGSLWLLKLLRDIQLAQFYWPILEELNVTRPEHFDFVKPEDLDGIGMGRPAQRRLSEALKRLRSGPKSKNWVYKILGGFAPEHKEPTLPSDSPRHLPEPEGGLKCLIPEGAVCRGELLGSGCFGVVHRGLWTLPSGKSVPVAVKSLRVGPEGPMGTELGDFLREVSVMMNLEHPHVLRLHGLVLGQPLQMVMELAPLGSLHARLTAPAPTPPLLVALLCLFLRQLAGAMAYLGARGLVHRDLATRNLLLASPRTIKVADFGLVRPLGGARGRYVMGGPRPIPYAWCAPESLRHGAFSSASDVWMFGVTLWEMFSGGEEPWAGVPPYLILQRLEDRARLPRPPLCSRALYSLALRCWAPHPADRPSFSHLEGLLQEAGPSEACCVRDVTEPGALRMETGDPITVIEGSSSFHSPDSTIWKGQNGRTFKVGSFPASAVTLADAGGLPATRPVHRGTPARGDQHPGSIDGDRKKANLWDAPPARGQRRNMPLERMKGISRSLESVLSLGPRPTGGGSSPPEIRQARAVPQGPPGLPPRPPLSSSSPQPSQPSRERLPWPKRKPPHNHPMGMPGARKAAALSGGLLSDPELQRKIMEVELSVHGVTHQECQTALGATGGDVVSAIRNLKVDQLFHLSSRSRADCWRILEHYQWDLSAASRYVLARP
The note with it: read-out: % Enzyme Activity (relative to DMSO controls), kinase TNK1.

Assay [10] addresses T10, panel of 374 wild-type kinases (Homo sapiens, UniProt Q5TCX8).
T10 construct: purchased Reaction Biology Corporation
The note with it: read-out: % Enzyme Activity (relative to DMSO controls), MLK4.

Assay [11] addresses T11, panel of 374 wild-type kinases (Homo sapiens, UniProt P53671).
T11 construct: purchased Reaction Biology Corporation
The note with it: read-out: % Enzyme Activity (relative to DMSO controls), LIMK2.

In patent US20240246942A1, “KINASE INHIBITORS FOR THE TREATMENT OF NEURODEGENERATIVE DISEASES” (priority 2020, published 2024) one finds remaining activity data, which are given here for three molecules.

T2 sequence (O75914 whole entry): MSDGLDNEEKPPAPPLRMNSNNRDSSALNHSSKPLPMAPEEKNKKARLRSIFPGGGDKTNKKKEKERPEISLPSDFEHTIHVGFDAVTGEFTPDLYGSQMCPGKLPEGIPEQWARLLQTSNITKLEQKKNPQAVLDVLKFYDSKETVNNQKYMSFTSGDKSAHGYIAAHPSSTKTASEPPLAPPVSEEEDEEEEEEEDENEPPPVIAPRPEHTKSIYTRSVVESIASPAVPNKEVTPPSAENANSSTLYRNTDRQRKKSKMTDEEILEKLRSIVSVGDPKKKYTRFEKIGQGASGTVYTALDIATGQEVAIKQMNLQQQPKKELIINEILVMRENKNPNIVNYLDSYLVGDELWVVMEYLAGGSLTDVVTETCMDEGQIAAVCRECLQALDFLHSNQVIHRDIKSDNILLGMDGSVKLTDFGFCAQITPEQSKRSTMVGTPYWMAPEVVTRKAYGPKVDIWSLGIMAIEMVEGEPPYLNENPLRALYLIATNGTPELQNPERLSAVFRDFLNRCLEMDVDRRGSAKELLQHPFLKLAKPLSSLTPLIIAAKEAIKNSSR
T11 sequence (P53671 whole entry): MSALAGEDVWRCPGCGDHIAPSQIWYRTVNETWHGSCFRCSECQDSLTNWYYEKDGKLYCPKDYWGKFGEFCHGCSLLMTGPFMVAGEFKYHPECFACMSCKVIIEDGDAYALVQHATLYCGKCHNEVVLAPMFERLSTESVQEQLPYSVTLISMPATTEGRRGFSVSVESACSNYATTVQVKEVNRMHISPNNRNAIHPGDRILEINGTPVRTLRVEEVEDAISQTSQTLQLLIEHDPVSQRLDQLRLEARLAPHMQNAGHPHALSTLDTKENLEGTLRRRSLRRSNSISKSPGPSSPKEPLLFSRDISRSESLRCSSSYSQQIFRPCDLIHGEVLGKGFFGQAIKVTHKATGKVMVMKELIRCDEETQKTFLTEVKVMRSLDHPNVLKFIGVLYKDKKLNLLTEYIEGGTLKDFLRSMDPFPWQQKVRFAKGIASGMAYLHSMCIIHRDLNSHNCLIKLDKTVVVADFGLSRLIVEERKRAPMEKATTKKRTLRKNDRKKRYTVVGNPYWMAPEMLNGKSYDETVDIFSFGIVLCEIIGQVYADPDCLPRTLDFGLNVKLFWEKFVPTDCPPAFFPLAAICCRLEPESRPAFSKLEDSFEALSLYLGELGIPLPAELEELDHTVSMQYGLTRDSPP
T4 sequence (Q9UBS0 whole entry): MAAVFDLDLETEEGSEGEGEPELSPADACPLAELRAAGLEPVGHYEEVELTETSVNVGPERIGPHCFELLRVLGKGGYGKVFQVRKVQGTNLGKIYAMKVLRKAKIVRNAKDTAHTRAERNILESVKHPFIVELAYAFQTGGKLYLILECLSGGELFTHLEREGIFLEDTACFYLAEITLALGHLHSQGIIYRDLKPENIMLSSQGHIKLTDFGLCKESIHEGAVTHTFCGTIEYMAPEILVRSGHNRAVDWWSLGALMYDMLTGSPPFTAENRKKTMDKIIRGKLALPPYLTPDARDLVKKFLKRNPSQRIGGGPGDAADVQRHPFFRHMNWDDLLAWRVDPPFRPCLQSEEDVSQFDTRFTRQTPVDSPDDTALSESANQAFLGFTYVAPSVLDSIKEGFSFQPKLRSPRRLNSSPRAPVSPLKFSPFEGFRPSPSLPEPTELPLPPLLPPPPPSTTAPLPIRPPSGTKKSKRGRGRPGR
T10 sequence (Q5TCX8 whole entry): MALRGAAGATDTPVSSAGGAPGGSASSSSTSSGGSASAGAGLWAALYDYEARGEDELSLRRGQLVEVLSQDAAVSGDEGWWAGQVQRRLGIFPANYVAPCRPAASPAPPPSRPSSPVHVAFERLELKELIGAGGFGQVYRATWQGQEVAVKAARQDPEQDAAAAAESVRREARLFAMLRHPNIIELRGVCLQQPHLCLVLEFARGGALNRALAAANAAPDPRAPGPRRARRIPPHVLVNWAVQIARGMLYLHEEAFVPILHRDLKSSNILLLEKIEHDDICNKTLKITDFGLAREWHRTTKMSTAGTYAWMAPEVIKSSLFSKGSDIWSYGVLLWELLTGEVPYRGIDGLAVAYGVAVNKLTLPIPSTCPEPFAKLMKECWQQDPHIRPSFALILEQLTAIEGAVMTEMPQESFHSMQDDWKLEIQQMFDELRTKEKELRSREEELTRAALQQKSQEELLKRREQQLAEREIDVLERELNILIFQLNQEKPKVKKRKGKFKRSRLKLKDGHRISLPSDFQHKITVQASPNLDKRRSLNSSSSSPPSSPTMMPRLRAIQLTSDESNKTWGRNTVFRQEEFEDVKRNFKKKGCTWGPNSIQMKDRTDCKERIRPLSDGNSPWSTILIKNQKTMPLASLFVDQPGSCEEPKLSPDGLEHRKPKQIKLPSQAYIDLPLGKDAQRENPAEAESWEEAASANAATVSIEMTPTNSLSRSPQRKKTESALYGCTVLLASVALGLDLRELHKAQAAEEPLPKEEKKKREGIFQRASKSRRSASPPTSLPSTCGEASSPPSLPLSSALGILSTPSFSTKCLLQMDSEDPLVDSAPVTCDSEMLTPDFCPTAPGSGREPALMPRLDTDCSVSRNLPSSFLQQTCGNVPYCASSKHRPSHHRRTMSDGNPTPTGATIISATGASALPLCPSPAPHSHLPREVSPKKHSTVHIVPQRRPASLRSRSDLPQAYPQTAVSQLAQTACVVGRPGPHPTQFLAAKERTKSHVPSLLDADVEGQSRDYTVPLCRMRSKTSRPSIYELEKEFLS
T5 sequence (Q13177 whole entry): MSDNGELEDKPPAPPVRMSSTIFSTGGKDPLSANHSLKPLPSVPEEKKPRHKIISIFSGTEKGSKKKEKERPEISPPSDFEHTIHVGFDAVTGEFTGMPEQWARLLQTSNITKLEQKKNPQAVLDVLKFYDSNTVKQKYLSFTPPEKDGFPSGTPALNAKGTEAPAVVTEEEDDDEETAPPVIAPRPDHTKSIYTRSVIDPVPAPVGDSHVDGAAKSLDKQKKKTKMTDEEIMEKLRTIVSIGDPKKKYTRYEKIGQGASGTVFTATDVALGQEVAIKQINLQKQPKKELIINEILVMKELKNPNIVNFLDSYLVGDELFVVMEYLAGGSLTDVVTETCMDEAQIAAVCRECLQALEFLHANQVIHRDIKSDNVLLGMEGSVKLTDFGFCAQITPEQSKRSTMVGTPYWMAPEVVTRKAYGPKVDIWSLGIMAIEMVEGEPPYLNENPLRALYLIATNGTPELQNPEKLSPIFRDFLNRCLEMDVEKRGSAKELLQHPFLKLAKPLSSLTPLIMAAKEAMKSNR

With `O=C(Nc1cnn(-c2csc(C(=O)NC3COC3)c2)c1)Nc1ccccc1Cl` [Compound 17, 4-(4-(3-(2-chlorophenyl)ureido)-1H-pyrazol-1-yl)-N-(oxetan-3-yl)thiophene-2-carboxamide], the remaining activity at 5 µM amounted to 108% in assay [1]; 97.4% in [2]; 109% in [3]; 94.2% in assay [4]; 90.1% in assay [5]; 107% in assay [6]. The remaining activity at 5 µM in [7] turned out to be 89.8%; in assay [8] it was 89.9%; in assay [9], 100%; in assay [10], 93.2%; in assay [11] it was 96.8%.
As for `O=C(Nc1cnn(-c2csc(C(=O)NC3COC3)c2)c1)Nc1c(F)cccc1Cl` [Compound 25, 4-(4-(3-(2-chloro-6-fluorophenyl)ureido)-1H-pyrazol-1-yl)-N-(oxetan-3-yl)thiophene-2-carboxamide], the remaining activity at 5 µM was 100% in [1]; 64.2% in [2]; 90.8% in assay [3]; 101% in assay [4]; 95.3% in assay [5]; 110% in assay [6]. For the same molecule, the remaining activity at 5 µM came out at 90.8% in [7]; 83.5% in assay [8]; 91.5% in assay [9]; 94.3% in assay [10]; 94% in [11].
Regarding `Cc1sc(C(=O)NC2COC2)cc1-n1cc(NC(=O)Nc2c(F)cccc2Cl)cn1` [Compound 27, 4-(4-(3-(2-chloro-6-fluorophenyl)ureido)-1H-pyrazol-1-yl)-5-methyl-N-(oxetan-3-yl)thiophene-2-carboxamide], the remaining activity at 10 µM in assay [1] (10 uM) amounted to 96.9%; in assay [2] (10 uM) it was 114%; in assay [3] (10 uM), 75.5%; in assay [4] (10 uM), 98.9%; in assay [5] (10 uM) it was 106%; in [6] (10 uM) it was 100%. Moreover, the remaining activity at 10 µM is 76.7% in assay [7] (10 uM); 78.7% in assay [8] (10 uM); 105% in assay [9] (10 uM); 85.2% in [10] (10 uM); 113% in assay [11] (10 uM).
